These are literature values, as cited in patent US20250228825A1, “COMPOSITIONS OF RAPAMYCIN AND THEIR USE IN THE TREATMENT OF M[…] MALFORMATION” (priority 2021, published 2025).

The series relates to LM lesions. As to conditions: patients with LM.

Consider `CO[C@H]1C[C@@H]2CC[C@@H](C)[C@@](O)(O2)C(=O)C(=O)N2CCCC[C@H]2C(=O)O[C@H]([C@H](C)C[C@@H]2CC[C@@H](O)[C@H](OC)C2)CC(=O)[C@H](C)/C=C(\C)[C@@H](O)[C@@H](OC)C(=O)[C@H](C)C[C@H](C)/C=C/C=C/C=C/1C` [sirolimus, rapamycin], for which, under “reported in another review”, the effectiveness is on record as 84.5%. Besides, the “pooled clinical effectiveness (partial or complete response)” value (reported in one review) was 94.9%.
